The target in series [1] is Tyrosine-protein kinase Lck (Homo sapiens, UniProt P06239).
The target in series [2] is Vascular endothelial growth factor receptor 2 (Homo sapiens, UniProt P35968).
Series [3] can be described thus: Volume of distribution at steady state in Sprague-Dawley rat 2 mg/kg, iv. It is filed as ADME, organism-based. Set-up: dose 2 mg/kg, route intravenous. Conditions: in vivo, read-out: Vdss.
Series [4] concerns the target Mitogen-activated protein kinase 14 (Homo sapiens, UniProt Q16539).
A short description of series [5]: Clearance in Sprague-Dawley rat 2 mg/kg, iv. It is filed as ADME, organism-based. Details: dose 2 mg/kg, route intravenous. Conditions: in vivo.
Series [6] has as its target Mitogen-activated protein kinase 9 (Homo sapiens, UniProt P45984). In words: Inhibition of JNK2.
Series [7] can be described thus: AUC (0 to infinity) in Sprague-Dawley rat 10 mg/kg, po. Conditions: plasma. Set-up: dose 10 mg/kg, route oral, time infinity. It counts as ADME, organism-based.
A short description of series [8]: Oral bioavailability in Sprague-Dawley rat 10 mg/kg. Conditions: in vivo. It counts as ADME, organism-based.
Series [9] addresses Mitogen-activated protein kinase 8 (Homo sapiens, UniProt P45983). In words: Inhibition of JNK1.
In series [10] the target is Mitogen-activated protein kinase 10 (Homo sapiens, UniProt P53779). In words: Inhibition of JNK3.
Mitogen-activated protein kinase 10, sequence (P53779 whole entry): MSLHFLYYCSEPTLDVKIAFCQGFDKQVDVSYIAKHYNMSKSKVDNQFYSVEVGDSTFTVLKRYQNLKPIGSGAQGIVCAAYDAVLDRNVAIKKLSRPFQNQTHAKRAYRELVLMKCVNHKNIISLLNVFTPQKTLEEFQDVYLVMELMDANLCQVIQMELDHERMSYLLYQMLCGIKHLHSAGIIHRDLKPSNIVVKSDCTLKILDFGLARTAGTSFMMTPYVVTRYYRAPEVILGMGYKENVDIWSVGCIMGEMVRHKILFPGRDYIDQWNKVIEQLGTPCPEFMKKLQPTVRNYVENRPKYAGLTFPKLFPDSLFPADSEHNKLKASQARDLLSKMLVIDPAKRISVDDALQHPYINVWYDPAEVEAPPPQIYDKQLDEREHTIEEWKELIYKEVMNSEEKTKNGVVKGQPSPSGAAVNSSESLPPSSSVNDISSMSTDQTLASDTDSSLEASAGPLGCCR
Series [11] has as its system Blood. In words: Inhibition of TNF-alpha-induced IL8 production in human whole blood cells. It is filed as functional, cell-based.
The test system of series [12] is THP-1. In words: Inhibition of LPS-induced TNFalpha production in human THP1 cells. It is filed as functional, cell-based.
A short description of series [13]: Half life in Sprague-Dawley rat 2 mg/kg, iv. It counts as ADME, organism-based. Details: dose 2 mg/kg, route intravenous. Conditions: in vivo.
The target in series [14] is Mast/stem cell growth factor receptor Kit (Homo sapiens, UniProt P10721). The series is described as follows: Inhibition of cKit.
Mast/stem cell growth factor receptor Kit, sequence (P10721 whole entry): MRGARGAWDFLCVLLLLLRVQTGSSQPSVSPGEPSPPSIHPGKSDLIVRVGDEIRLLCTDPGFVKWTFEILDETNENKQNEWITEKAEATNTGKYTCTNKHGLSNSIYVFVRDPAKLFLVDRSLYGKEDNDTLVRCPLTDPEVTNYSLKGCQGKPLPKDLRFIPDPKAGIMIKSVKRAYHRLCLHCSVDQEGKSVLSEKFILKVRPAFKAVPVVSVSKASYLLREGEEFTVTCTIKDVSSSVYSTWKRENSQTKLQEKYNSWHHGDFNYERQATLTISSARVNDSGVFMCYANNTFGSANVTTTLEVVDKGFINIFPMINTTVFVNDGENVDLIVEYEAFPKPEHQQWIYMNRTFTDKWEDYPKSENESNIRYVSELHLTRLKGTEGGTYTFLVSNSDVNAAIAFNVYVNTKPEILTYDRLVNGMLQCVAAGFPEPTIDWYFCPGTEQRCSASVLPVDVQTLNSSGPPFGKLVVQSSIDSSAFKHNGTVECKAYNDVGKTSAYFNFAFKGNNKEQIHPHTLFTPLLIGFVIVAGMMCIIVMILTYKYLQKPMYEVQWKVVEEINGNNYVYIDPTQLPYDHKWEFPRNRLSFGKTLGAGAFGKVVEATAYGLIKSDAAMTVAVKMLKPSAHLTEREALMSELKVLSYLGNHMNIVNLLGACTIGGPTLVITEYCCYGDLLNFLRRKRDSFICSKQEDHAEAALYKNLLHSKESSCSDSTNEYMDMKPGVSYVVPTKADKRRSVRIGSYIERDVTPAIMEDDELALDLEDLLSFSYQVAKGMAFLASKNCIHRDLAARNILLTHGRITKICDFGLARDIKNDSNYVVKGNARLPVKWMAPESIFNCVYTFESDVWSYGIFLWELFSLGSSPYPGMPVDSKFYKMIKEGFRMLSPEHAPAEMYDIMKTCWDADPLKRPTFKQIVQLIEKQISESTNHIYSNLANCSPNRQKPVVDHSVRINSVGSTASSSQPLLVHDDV
The nature of series [15]: Inhibition of PDGFR.
The target in series [16] is Tyrosine-protein kinase Lyn (Homo sapiens, UniProt P07948). The series is described as follows: Inhibition of Lyn.
Tyrosine-protein kinase Lyn, sequence (P07948 whole entry): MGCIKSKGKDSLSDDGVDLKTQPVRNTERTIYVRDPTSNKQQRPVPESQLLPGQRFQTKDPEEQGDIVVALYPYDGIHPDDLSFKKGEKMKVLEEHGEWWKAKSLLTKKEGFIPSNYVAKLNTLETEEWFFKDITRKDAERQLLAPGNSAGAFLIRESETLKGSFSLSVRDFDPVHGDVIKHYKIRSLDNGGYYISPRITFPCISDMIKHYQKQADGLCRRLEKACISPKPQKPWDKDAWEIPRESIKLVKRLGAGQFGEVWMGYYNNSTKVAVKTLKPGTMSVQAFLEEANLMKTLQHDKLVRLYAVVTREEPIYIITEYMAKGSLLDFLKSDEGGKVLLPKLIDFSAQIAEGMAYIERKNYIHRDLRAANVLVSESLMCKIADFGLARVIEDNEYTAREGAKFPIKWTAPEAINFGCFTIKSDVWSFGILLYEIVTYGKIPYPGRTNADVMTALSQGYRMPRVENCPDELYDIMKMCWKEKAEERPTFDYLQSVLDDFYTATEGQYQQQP
Series [17] is filed under the species Rattus norvegicus. The series is described as follows: Inhibition of LPS-induced TNFalpha production in Lewis rat. It is filed as functional.
The subject of series [18] is Rattus norvegicus. The series is described as follows: Antiinflammatory activity against collagen-induced arthritis in po dosed Lewis rat model assessed as inhibition of paw swelling. It is filed as functional.
The test system of series [19] is Rattus norvegicus. The series is described as follows: Antiinflammatory activity against collagen-induced arthritis Lewis rat model assessed as area under the paw swelling curve at 0.04 mg/kg, po relative to control. It counts as functional, organism-based. Details: dose 0.04 mg/kg.
Series [20] can be described thus: Permeability from apical to basolateral side of human Caco-2 cells. It is filed as ADME, cell-based. (Passage across Caco-2 layers is used to estimate intestinal permeability.)
Series [21] can be described thus: Oral bioavailability in Sprague-Dawley rat 1 mg/kg. It counts as ADME, organism-based. Conditions: in vivo.
Series [22] is described as follows: Half life in Sprague-Dawley rat 1 mg/kg, iv. It is filed as ADME, organism-based. Set-up: dose 1 mg/kg, route intravenous. Conditions: in vivo.
Series [23] in a line: Volume of distribution at steady state in Sprague-Dawley rat 1 mg/kg, iv. It is filed as ADME, organism-based. Details: dose 1 mg/kg, route intravenous. Conditions: in vivo, read-out: Vdss.
A short description of series [24]: Clearance in Sprague-Dawley rat 1 mg/kg, iv. Conditions: in vivo. It is filed as ADME, organism-based. Details: dose 1 mg/kg, route intravenous.
Series [25] is described as follows: AUC (0 to infinity) in Sprague-Dawley rat 1 mg/kg, po. It is filed as ADME, organism-based. Details: time infinity, dose 1 mg/kg, route oral. Conditions: plasma.
Series [26] is described as follows: Permeability from basolateral to apical side of human Caco-2 cells. It is filed as ADME, cell-based.

Some results are limits rather than exact numbers.

The values below come from ChEMBL document CHEMBL1140163 (J Med Chem, 2008).

Vascular endothelial growth factor receptor 2, sequence (P35968 whole entry): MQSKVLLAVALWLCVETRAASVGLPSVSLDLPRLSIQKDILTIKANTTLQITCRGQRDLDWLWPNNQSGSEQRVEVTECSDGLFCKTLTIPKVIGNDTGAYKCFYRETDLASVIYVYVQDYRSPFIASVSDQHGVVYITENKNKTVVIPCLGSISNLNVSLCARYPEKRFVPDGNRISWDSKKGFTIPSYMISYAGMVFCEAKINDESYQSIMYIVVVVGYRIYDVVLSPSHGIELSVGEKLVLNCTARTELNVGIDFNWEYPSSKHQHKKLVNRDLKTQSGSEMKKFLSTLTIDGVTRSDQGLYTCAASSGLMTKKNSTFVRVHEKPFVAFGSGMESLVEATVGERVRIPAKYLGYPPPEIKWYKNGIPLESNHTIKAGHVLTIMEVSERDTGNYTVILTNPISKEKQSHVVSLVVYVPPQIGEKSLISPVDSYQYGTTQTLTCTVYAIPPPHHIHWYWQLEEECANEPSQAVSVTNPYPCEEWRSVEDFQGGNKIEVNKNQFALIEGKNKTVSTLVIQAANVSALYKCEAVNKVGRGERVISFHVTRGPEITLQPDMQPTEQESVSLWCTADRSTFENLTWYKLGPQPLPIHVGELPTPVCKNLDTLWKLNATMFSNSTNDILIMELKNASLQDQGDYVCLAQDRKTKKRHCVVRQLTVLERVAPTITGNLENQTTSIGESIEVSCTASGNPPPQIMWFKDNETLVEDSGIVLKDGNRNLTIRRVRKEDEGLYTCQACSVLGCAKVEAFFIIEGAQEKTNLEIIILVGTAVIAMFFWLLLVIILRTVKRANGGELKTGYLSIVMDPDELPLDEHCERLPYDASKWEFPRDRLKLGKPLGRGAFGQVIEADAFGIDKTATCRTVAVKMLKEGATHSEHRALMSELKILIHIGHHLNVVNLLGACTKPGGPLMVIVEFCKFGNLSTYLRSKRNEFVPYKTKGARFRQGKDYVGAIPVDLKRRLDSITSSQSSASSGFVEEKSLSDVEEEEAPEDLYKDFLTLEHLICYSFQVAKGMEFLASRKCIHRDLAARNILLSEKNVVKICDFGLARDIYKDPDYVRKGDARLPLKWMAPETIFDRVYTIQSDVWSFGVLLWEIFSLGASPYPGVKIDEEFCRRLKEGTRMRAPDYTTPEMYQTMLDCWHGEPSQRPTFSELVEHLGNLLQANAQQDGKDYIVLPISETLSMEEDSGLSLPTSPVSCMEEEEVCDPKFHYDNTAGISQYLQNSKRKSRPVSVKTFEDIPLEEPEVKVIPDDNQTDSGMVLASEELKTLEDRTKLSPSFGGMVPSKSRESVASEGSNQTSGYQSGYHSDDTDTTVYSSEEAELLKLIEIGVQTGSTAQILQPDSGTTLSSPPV
Mitogen-activated protein kinase 9, sequence (P45984 whole entry): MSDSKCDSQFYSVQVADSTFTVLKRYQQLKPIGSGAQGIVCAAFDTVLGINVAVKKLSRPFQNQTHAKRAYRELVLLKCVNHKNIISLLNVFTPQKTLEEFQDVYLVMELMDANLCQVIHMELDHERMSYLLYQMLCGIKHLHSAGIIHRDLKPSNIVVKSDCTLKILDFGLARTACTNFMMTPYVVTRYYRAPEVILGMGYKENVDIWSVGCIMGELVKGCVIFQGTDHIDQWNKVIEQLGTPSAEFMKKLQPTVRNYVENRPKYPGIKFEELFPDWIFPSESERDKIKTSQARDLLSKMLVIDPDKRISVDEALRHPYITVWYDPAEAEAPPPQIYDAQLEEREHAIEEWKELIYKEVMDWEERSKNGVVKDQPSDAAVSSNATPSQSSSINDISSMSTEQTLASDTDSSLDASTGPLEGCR
Mitogen-activated protein kinase 8, sequence (P45983 whole entry): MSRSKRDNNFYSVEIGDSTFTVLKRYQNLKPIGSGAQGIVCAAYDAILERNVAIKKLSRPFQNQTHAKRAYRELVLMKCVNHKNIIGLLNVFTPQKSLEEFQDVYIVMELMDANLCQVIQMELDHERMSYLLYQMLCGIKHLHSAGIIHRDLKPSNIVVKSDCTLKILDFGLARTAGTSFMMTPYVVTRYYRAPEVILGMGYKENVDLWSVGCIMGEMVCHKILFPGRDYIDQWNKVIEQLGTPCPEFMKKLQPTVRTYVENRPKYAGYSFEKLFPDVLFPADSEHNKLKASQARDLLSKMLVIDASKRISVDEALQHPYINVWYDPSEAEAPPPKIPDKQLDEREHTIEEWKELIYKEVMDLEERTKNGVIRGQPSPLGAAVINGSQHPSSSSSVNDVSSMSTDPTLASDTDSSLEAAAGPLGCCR
Tyrosine-protein kinase Lck, sequence (P06239 whole entry): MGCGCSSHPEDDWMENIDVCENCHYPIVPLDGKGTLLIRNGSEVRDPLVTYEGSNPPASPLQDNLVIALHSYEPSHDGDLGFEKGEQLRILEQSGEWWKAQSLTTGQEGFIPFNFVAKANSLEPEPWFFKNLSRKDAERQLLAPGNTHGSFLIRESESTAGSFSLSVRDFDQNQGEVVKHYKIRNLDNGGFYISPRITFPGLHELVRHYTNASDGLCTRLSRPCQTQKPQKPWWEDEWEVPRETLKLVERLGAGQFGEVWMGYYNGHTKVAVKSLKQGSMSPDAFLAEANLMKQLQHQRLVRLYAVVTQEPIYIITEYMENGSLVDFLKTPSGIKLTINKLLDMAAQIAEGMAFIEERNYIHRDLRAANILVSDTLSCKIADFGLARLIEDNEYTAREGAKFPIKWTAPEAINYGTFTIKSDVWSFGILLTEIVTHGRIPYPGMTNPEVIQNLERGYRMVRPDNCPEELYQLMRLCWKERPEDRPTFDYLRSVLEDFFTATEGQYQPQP
Mitogen-activated protein kinase 14, sequence (Q16539 whole entry): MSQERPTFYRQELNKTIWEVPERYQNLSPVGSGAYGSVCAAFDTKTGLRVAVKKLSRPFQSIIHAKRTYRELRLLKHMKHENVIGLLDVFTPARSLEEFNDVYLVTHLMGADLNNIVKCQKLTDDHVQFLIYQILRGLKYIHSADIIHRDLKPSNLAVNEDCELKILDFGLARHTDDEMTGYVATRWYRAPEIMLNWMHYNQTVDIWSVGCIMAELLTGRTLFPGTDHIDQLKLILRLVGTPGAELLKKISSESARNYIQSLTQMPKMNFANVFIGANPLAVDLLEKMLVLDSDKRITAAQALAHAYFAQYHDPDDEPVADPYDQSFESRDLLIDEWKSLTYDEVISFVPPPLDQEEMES

Take `Cc1ccc(C(=O)NC2CC2)cc1-c1ccc2c(OC(C)C)nncc2c1`: the 50% inhibitory concentration (IC50) was 3610 nM in [1]; 1140 nM in series [2]; 0.6 nM in series [4]; 5950 nM in [6]; more than 10000 nM in [9]; more than 10000 nM in series [10]. Moreover, the IC50 in series [11] turned out to be 1.6 nM; in series [12], 0.4 nM; in series [14], 421 nM. Also, in series [3], the Vd came to 2.1 L/kg. In addition, the clearance in series [5] was 13.3 mL/min/kg. The same compound returned an AUC(0-inf) in series [7] of 10900 ng·h/mL. This compound registered a bioavailability in series [8] of 92%. The compound further gave a half-life in series [13] of 1.8 h.

For `Cc1ccc(C(=O)NC2CC2)cc1-c1ccc2c(-c3ccccc3)nncc2c1`, the IC50 is 1340 nM in [1]; 6290 nM in [2]; 2 nM in series [4]; more than 10000 nM in series [6]; more than 10000 nM in series [9]; more than 10000 nM in series [10]. The IC50 in series [11] came to 3.5 nM; in series [12], 0.8 nM; in series [14] it was 149 nM.

Regarding `Cc1ccc(C(=O)NC2CC2)cc1-c1ccc2c(O[C@@H](C)C(F)(F)F)nncc2c1`, the IC50 was more than 5000 nM in [1]; 2680 nM in series [2]; 88 nM in series [15]; 954 nM in series [16]; 1 nM in [4]; 7770 nM in [6]. The IC50 in series [9] is more than 10000 nM; in [10] it was more than 10000 nM; in series [11], 2.7 nM; in series [12], 0.4 nM; in [14] it was 1060 nM. Also, the Vd in series [3] worked out at 4.7 L/kg. The clearance in series [5] was 5.83 mL/min/kg. Besides, the ED50 is less than 0.03 mg/kg in series [17] and 0.04 mg/kg in series [18]. In addition, the AUC(0-inf) in [7] is 21100 ng·h/mL. Also, the bioavailability in series [8] came out at 72%. Also, in series [19], the AUC amounted to 51.1 ng·h/mL. Besides, the half-life in [13] is 9.9 h.

For the compound `Cc1ccc(C(=O)NC2CC2)cc1-c1ccc2c(N3CCOC[C@@H]3C)nncc2c1`, the IC50 in [1] is more than 10000 nM; in series [2], 8550 nM; in series [4], 1.1 nM; in series [6] it was 4830 nM; in series [9] it was more than 10000 nM; in series [10], more than 10000 nM. For the same compound, the IC50 was determined as 1.2 nM in [11], 1.1 nM in [12] and 2010 nM in [14]. The Vd in series [3] came to 1.2 L/kg. This compound had a clearance in series [5] of 13.3 mL/min/kg. The AUC(0-inf) in series [7] stood at 7090 ng·h/mL. The bioavailability in [8] is 57%. The compound also had a half-life in series [13] of 1.3 h.

For the compound `Cc1ccc(C(=O)NC2CC2)cc1-c1ccc2c(-c3ccccc3C)nncc2c1`, the Vd in series [3] came out at 1.8 L/kg. This compound had a clearance in series [5] of 28.3 mL/min/kg. In series [7], this compound showed an AUC(0-inf) of 2330 ng·h/mL. This compound also yielded a bioavailability in series [8] of 40%. In [13], this compound gave a half-life of 1.4 h.

Take `Cc1ccc(C(=O)NC2CC2)cc1-c1ccc2c(N3CCOCC3)nncc2c1`: the IC50 in [1] is 3810 nM; in [2], 3040 nM; in [4] it was 1.2 nM; in series [6], 9690 nM; in series [9], more than 10000 nM; in series [10] it was more than 10000 nM. Moreover, the figures for the IC50 in [11], in series [12] and in series [14] were 0.9 nM, 0.7 nM and 529 nM, respectively. The compound also came in with a Papp A→B in series [20] of 10.5 ×10⁻⁶ cm/s. In series [21], this compound came in with a bioavailability of 22%. The half-life in [22] was 4.1 h. The Vd in series [23] turned out to be 3.5 L/kg. The clearance in series [24] is 28.3 mL/min/kg. In series [25], the AUC(0-inf) came out at 124 ng·h/mL. In addition, the Papp B→A in [26] came out at 39.8 ×10⁻⁶ cm/s.

In the case of `Cc1ccc(C(=O)NC2CC2)cc1-c1ccc2c(O[C@H](C)C(F)(F)F)nncc2c1`, the IC50 in [1] is 6050 nM; in series [2] it was 505 nM; in series [4] it was 0.8 nM; in series [6] it was 4390 nM; in [9] it was more than 10000 nM; in [10], 9490 nM. Moreover, the IC50 is 8.1 nM in [11], 0.9 nM in series [12] and 1170 nM in [14].

As to `Cc1ccc(C(=O)NC2CC2)cc1-c1ccc2c(NCCN3CCOCC3)nncc2c1`, the IC50 in series [1] was more than 10000 nM; in series [2] it was 5140 nM; in [4] it was 1.9 nM; in series [6] it was more than 10000 nM; in series [9], more than 10000 nM; in series [10], more than 10000 nM. In addition, the results for the IC50 in series [11], in [12] and in series [14] were 4.3 nM, 24.9 nM and 1060 nM, respectively. Also, the Vd in [3] came to 2.8 L/kg. Besides, the Papp A→B in series [20] amounted to 0.3 ×10⁻⁶ cm/s. Further, the clearance in series [5] was 20 mL/min/kg. In series [7], this compound yielded an AUC(0-inf) of 39 ng·h/mL. This compound displayed a bioavailability in series [8] of 1%. This compound also gave a Papp B→A in series [26] of 31 ×10⁻⁶ cm/s. The compound also had a half-life in series [13] of 2.3 h.

Consider `O=C(NC1CC1)c1cccc(-c2ccc3c(N4CCOCC4)nncc3c2)c1`, for which the IC50 in series [4] is 182 nM; in series [14] it was more than 8330 nM.

Turning to `Cc1ccc(C(=O)NC2CC2)cc1-c1ccc2c(OC(C)C)cncc2c1`, the IC50 was determined as 0.6 nM in series [4] and 41 nM in series [14].

In general, IC50 refers to the midpoint of a concentration-inhibition curve. The term clearance denotes a measure of how efficiently the substance is removed, as volume per time. One may read the AUC(0-inf) as total exposure, with the tail of the curve extrapolated. A lower AUC(0-inf) goes with low exposure. For orientation: bioavailability means the share of a dose that reaches the circulation, judged against a reference dose that is usually intravenous. A word on the half-life: it is the time needed for the level to fall by half in the phase considered. A higher half-life goes with slow loss. As usually defined, the ED50 is the dose at which the effect has come halfway, by size or by number of responders. As usually defined, the Papp A→B is how fast a substance crosses the layer from the apical side. Higher therefore signals ready permeation. Broadly, the Papp B→A is the apparent permeability from the basolateral to the apical side of a cell layer.
